Test results published in patent US9708314B2, “Heterocyclic amide compound” (NISSAN CHEMICAL INDUSTRIES, LTD., priority 2013, dated 2017).

How the values were obtained:
Format in all cases: in vivo
Setaria viridis = assay: Test Example 4: herbicidal effect by application to foliage (diluvial soil, plastic box); conditions: foliage application, 320 g/ha
In short: (§1)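 Scores run from 0 (herbicidal ratio ≤5%) to 5 (≥90%, almost fully withered) and were assessed three weeks after foliar spraying. Seedlings had been raised for 14 days at 25-30° C in sterilized diluvial soil before treatment, with the emulsion diluted in water to the stated g/ha dose.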

Avena fatua = assay: as above; conditions: foliage application, 320 g/ha
In short: as §1

[1] = tested on: Echinochloa crus-galli var. crus-galli; assay: as above; conditions: foliage application, 320 g/ha
In short: as §1

Galium spurium = assay: as above; conditions: foliage application, 320 g/ha
In short: as §1

Chenopodium album = assay: as above; conditions: foliage application, 320 g/ha
In short: as §1

Alopecurus myosuroides = assay: as above; conditions: foliage application, 320 g/ha
In short: as §1

Stellaria media = assay: as above; conditions: foliage application, 320 g/ha
In short: as §1

Veronica persica = assay: as above; conditions: foliage application, 320 g/ha
In short: as §1

Apera spica-venti. = assay: as above; conditions: foliage application, 320 g/ha
In short: as §1

Lolium multiflorum Lam. = assay: as above; conditions: foliage application, 320 g/ha
In short: as §1

Digitaria ciliaris = assay: as above; conditions: foliage application, 320 g/ha
In short: as §1

Amaranthus retroflexus = assay: as above; conditions: foliage application, 320 g/ha
In short: as §1

Abutilon theophrasti = assay: as above; conditions: foliage application, 320 g/ha
In short: as §1

Scirpus juncoides = assay: Test Example 2: herbicidal activity, application during weed generation in submerged conditions; conditions: Eighteenth Table; application herbicide amount 320 g/ha
In short: (§2)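 Alluvial soil in Wagner pots flooded to 4 cm water depth; seeds sown mixed, grown in greenhouse at 25–30 °C. At one- to two-leaf stage, emulsion diluted with water to the set rate (g/ha) was applied to the water surface. Effect scored 0–5 by herbicidal ratio three weeks later.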

[2] = tested on: Echinochloa oryzacola Vasing.; assay: as above; conditions: Eighteenth Table; application herbicide amount 320 g/ha
In short: as §2

Monochoria vaginalis = assay: as above; conditions: Eighteenth Table; application herbicide amount 320 g/ha
In short: as §2

Brassica campestris L. = assay: Test Example 4: effect on crop by application to foliage (diluvial soil, plastic box); conditions: foliage application, 320 g/ha
In short: as §1

[3] = tested on: directly sowed Oryza sativa; assay: as above; conditions: foliage application, 320 g/ha
In short: as §1

Zea mays = assay: as above; conditions: foliage application, 320 g/ha
In short: as §1

Triticum aestivum = assay: as above; conditions: foliage application, 320 g/ha
In short: as §1

Glycine max = assay: as above; conditions: foliage application, 320 g/ha
In short: as §1

[4] = tested on: Beta vulgaris ssp. vulgaris; assay: as above; conditions: foliage application, 320 g/ha
In short: as §1

Question: `CCC[S+]([O-])c1nnc2c(C(=O)Nc3nnnn3C)ccc(C(F)(F)F)n12` (stereo not shown) [2-069] was tested. Which “G (Setaria viridis) herbicidal effect grade” value (Setaria viridis) did it give?
Answer: 5 (Herbicidal ratio of 90% or more (almost completely withered))

Question: And the “I (Avena fatua) herbicidal effect grade” value (Avena fatua)?
Answer: 5 (Herbicidal ratio of 90% or more (almost completely withered))

Question: And the “H (Echinochloa crus-galli var. crus-galli) herbicidal effect grade” value [1]?
Answer: 5 (Herbicidal ratio of 90% or more (almost completely withered))

Question: What about the “Q (Galium spurium) herbicidal effect grade” value (Galium spurium) of the same compound?
Answer: 4 (Herbicidal ratio of 70% or more and less than 90%)

Question: And the “O (Chenopodium album) herbicidal effect grade” value (Chenopodium album)?
Answer: 5 (Herbicidal ratio of 90% or more (almost completely withered))

Question: What about the “J (Alopecurus myosuroides) herbicidal effect grade” value (Alopecurus myosuroides) of the same compound?
Answer: 3 (Herbicidal ratio of 40% or more and less than 70%)

Question: And the “P (Stellaria media) herbicidal effect grade” value (Stellaria media)?
Answer: 5 (Herbicidal ratio of 90% or more (almost completely withered))

Question: What about the “R (Veronica persica) herbicidal effect grade” value (Veronica persica) of the same compound?
Answer: 5 (Herbicidal ratio of 90% or more (almost completely withered))

Question: What about the “L (Apera spica-venti.) herbicidal effect grade” value (Apera spica-venti.) of the same compound?
Answer: 4 (Herbicidal ratio of 70% or more and less than 90%)

Question: What about the “K (Lolium multiflorum Lam.) herbicidal effect grade” value (Lolium multiflorum Lam.) of the same compound?
Answer: 3 (Herbicidal ratio of 40% or more and less than 70%)

Question: What about the “F (Digitaria ciliaris) herbicidal effect grade” value (Digitaria ciliaris) of the same compound?
Answer: 5 (Herbicidal ratio of 90% or more (almost completely withered))

Question: What about the “N (Amaranthus retroflexus) herbicidal effect grade” value (Amaranthus retroflexus) of the same compound?
Answer: 5 (Herbicidal ratio of 90% or more (almost completely withered))

Question: And the “M (Abutilon theophrasti) herbicidal effect grade” value (Abutilon theophrasti)?
Answer: 5 (Herbicidal ratio of 90% or more (almost completely withered))

Question: And the “B (Scirpus juncoides) herbicidal ratio grade” value (Scirpus juncoides)?
Answer: 5 (Herbicidal ratio of 90% or more (almost completely withered))

Question: What about the “A (Echinochloa oryzicola Vasing.) herbicidal ratio grade” value [2] of the same compound?
Answer: 5 (Herbicidal ratio of 90% or more (almost completely withered))

Question: What about the “C (Monochoria vaginalis) herbicidal ratio grade” value (Monochoria vaginalis) of the same compound?
Answer: 5 (Herbicidal ratio of 90% or more (almost completely withered))

Question: And the “g (Brassica campestris L.) effect on crop grade” value (Brassica campestris L.)?
Answer: 5 (Herbicidal ratio of 90% or more (almost completely withered))

Question: And the “d (directly sowed Oryza sativa) effect on crop grade” value [3]?
Answer: 4 (Herbicidal ratio of 70% or more and less than 90%)

Question: What about the “b (Zea mays) effect on crop grade” value (Zea mays) of the same compound?
Answer: 5 (Herbicidal ratio of 90% or more (almost completely withered))

Question: What about the “e (Triticum aestivum) effect on crop grade” value (Triticum aestivum) of the same compound?
Answer: 3 (Herbicidal ratio of 40% or more and less than 70%)

Question: And the “c (Glycine max) effect on crop grade” value (Glycine max)?
Answer: 4 (Herbicidal ratio of 70% or more and less than 90%)

Question: What about the “f (Beta vulgaris ssp. vulgaris) effect on crop grade” value [4] of the same compound?
Answer: 5 (Herbicidal ratio of 90% or more (almost completely withered))
